Type in all cases: cell-based
Holding throughout (conditions): tris-lipidated peptides

The target in experiment [1] is T1, human glucose-dependent insulinotropic peptide receptor (GIPR) (Homo sapiens, UniProt P48546).
T1 construct: expressed in transfected cells
T1 sequence (P48546 22-466): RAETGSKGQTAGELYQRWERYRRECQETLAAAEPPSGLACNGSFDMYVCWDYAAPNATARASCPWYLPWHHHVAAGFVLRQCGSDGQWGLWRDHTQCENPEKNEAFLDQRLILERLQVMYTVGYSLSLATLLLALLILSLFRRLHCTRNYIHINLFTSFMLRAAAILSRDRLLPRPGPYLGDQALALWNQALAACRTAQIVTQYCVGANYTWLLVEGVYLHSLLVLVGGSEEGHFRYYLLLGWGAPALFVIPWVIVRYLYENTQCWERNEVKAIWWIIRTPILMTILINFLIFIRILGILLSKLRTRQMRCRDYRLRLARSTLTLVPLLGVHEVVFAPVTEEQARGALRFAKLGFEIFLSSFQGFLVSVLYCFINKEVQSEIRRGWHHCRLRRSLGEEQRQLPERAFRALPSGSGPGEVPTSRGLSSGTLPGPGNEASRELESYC
Description: cAMP assay, human GIPR cells. In short, it runs like this: (§1)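 Peptide-stimulated cAMP measured by two-step HTRF after a 30 min room-temperature incubation with receptor-expressing cells (hGLP-1R, hGIPR at 1×10^5 cells/ml; hGCGR at 2×10^5 cells/ml). Duplicate dilutions; EC50 from 4-parameter logistic fit of % Delta F.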
Background: cAMP levels reflect the balance of adenylyl cyclase and phosphodiesterase activity.

Experiment [2] addresses T2, human GLP-1 receptor (GLP-1R) (Homo sapiens, UniProt P43220).
T2 construct: expressed in transfected cells
As to the kind of experiment: cAMP assay, human GLP-1R cells. The gist of the method:
as §1

In experiment [3] the target is T3, GLP-1R (INS1e assay) (Rattus norvegicus, UniProt P32301).
T3 construct: endogenous in cells; host or cells: INS-1E cells
T3 sequence (P32301 22-463): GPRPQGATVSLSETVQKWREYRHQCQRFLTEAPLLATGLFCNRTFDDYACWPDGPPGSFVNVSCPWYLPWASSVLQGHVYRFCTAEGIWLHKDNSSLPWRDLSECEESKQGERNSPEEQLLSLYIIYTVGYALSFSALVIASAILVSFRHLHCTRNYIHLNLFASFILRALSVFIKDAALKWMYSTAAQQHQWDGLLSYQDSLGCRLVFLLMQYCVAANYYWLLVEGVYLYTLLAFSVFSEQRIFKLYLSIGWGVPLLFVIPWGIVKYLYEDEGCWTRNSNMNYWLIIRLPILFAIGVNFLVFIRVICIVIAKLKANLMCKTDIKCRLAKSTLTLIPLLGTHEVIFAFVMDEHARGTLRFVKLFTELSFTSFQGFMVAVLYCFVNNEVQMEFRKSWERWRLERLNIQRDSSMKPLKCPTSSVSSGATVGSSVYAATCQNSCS
As to the kind of experiment: INS1e assay, cAMP activity at GLP-1R. The gist of the method: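 It pairs cAMP-d2 acceptor with anti-cAMP cryptate donor, both prepared 1/20 in conjugate/lysis buffer, applied as a two-step protocol.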

Experiment [4] deals with T4, human glucagon receptor (GCGR) (Homo sapiens, UniProt P47871).
T4 construct: expressed in transfected cells
As to the kind of experiment: cAMP assay, human GCGR cells. In short, it runs like this:
as §1

Where [5] appears, read: second replicate, read-out: Primary assay EC50 GIP-R (n2).
Setting [6] is: mean of n1 and n2, read-out: Primary assay EC50 Mean pM GLP-1R.
The mark [7] stands for this setting: replicate n1, read-out: Primary assay EC50 GLP-1R n1.
[8] abbreviates: replicate n2, read-out: Primary assay EC50 GLP-1R n2.
Where [9] appears, read: mean of n1 and n2, read-out: INS1e assay EC50 Mean pM GLP-1R.
The mark [10] stands for this setting: replicate n1, read-out: INS1e assay EC50 GLP-1R n1.
Where [11] appears, read: replicate n2, read-out: INS1e assay EC50 GLP-1R n2.
The mark [12] stands for this setting: second replicate, read-out: Primary assay EC50 Gluc-R (n2).
Setting [13] is: first replicate, read-out: Primary assay EC50 Gluc-R (n1).

SMILES strings stand for the structures. Like-named read-outs stand apart in the source and are kept apart here. Numbered stars: 1 amine (or outer) side, 2 acyl side, 3 side chain; on linkers, the order of the positions; unused ones are H or OH. Square brackets hold non-standard residues; d marks the D form. Side chains are listed from the residue outwards. Peptide text beside a SMILES is read from it. * marks the point of attachment. γGlu = O=C(O)[C@H](CCC(=O)[*:2])N[*:1]; αMeF = C[C@](N)(Cc1ccccc1)C(=O)O; αMeK = C[C@](N)(CCCCN)C(=O)O; Lauroyl = CCCCCCCCCCCC(=O)*; αMeS = C[C@](N)(CO)C(=O)O; AEEA = NCCOCCOCC(=O)O; Aib = CC(C)(N)C(=O)O

T2 sequence (P43220 24-463): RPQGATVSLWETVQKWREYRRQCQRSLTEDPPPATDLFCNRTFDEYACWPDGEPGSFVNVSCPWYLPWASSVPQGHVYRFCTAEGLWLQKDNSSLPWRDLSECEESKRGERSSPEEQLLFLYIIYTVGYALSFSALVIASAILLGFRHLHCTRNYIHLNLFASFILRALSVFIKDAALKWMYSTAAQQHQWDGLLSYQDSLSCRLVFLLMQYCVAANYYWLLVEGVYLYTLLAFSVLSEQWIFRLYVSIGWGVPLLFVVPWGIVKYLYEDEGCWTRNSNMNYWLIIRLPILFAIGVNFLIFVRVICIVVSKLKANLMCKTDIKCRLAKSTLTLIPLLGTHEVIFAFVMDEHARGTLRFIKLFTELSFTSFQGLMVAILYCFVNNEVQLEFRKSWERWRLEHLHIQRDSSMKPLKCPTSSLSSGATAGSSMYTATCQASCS
T4 sequence (P47871 26-477): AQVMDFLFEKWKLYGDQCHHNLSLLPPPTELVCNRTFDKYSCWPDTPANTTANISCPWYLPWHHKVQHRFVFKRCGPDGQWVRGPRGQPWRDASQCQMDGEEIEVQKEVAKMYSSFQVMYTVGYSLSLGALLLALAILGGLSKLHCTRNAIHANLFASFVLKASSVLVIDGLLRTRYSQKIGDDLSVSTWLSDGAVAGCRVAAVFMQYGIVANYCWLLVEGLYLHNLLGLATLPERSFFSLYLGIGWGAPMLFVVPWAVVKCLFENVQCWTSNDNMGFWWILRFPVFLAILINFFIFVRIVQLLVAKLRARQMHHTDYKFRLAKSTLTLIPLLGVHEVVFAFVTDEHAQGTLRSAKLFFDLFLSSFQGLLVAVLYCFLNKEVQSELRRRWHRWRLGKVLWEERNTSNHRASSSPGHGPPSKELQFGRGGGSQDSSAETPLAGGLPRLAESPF

For orientation: EC50 means the concentration that produces a half-maximal response. `CCCCCCCCCCCC(=O)N[C@@H](CCC(=O)NCCOCCOCC(=O)NCCOCCOCC(=O)NCCCC[C@H](NC(=O)[C@H](CO)NC(=O)[C@](C)(CO)NC(=O)[C@@H](NC(=O)[C@H](CC(=O)O)NC(=O)[C@H](CO)NC(=O)[C@@H](NC(=O)[C@](C)(Cc1ccccc1)NC(=O)[C@H](CO)NC(=O)CNC(=O)[C@H](CCC(=O)O)NC(=O)C(C)(C)NC(=O)[C@@H](N)Cc1c[nH]cn1)[C@@H](C)O)C(C)C)C(=O)N[C@@H](CC(C)C)C(=O)N[C@@H](CCC(=O)O)C(=O)NCC(=O)N[C@@H](CCC(=O)O)C(=O)N[C@@H](C)C(=O)N[C@@H](C)C(=O)N[C@@](C)(CCCCN)C(=O)N[C@@H](CCCCNC(=O)COCCOCCNC(=O)COCCOCCNC(=O)CC[C@H](NC(=O)CCCCCCCCCCC)C(=O)O)C(=O)N[C@@H](Cc1ccccc1)C(=O)N[C@H](C(=O)N[C@@H](CCCCNC(=O)COCCOCCNC(=O)COCCOCCNC(=O)CC[C@H](NC(=O)CCCCCCCCCCC)C(=O)O)C(=O)N[C@@H](Cc1ccccc1)C(=O)N[C@H](C(=O)N[C@H](C(=O)N[C@@H](CCC(=O)O)C(=O)NCC(=O)NCC(N)=O)C(C)C)C(C)C)[C@@H](C)CC)C(=O)O` [compound 450] (H-H[Aib]EGS[αMeF]TSDV[αMeS]SK([AEEA-AEEA-γGlu-Lauroyl])LEGEAA[αMeK]K([AEEA-AEEA-γGlu-Lauroyl])FIK([AEEA-AEEA-γGlu-Lauroyl])FVVEGG-NH2; N-terminus assumed): the EC50 in experiment [1] (setting [5]) came out at 19.9 nM; in experiment [2] (setting [6]), 49 pM; in experiment [2] (setting [7]) it was 28 pM; in experiment [2] (setting [8]), 70 pM; in experiment [3] (setting [9]), 6810 pM; in experiment [3] (setting [10]), 6380 pM. The EC50 is 7240 pM in experiment [3] (setting [11]) and 19.9 nM in experiment [4] (setting [12]).

For the compound `CCCCCCCCCCCC(=O)N[C@@H](CCC(=O)NCCOCCOCC(=O)NCCOCCOCC(=O)NCCCC[C@H](NC(=O)[C@H](Cc1ccc(O)cc1)NC(=O)[C@H](CO)NC(=O)[C@](C)(CO)NC(=O)[C@@H](NC(=O)[C@H](CC(=O)O)NC(=O)[C@H](CO)NC(=O)[C@@H](NC(=O)[C@](C)(Cc1ccccc1)NC(=O)[C@H](CO)NC(=O)CNC(=O)[C@H](CCC(=O)O)NC(=O)C(C)(C)NC(=O)[C@@H](N)Cc1c[nH]cn1)[C@@H](C)O)C(C)C)C(=O)N[C@@H](CCC(=O)O)C(=O)NCC(=O)N[C@@H](CCC(=O)O)C(=O)N[C@@H](C)C(=O)N[C@@H](C)C(=O)N[C@@](C)(CCCCN)C(=O)N[C@@H](CCCCNC(=O)COCCOCCNC(=O)COCCOCCNC(=O)CC[C@H](NC(=O)CCCCCCCCCCC)C(=O)O)C(=O)N[C@@H](Cc1ccccc1)C(=O)N[C@H](C(=O)N[C@@H](CCCCNC(=O)COCCOCCNC(=O)COCCOCCNC(=O)CC[C@H](NC(=O)CCCCCCCCCCC)C(=O)O)C(=O)N[C@@H](Cc1ccccc1)C(=O)N[C@H](C(=O)N[C@H](C(=O)N[C@@H](CCC(=O)O)C(=O)NCC(=O)NCC(N)=O)C(C)C)C(C)C)[C@@H](C)CC)C(=O)O` [compound 454] (H-H[Aib]EGS[αMeF]TSDV[αMeS]SYK([AEEA-AEEA-γGlu-Lauroyl])EGEAA[αMeK]K([AEEA-AEEA-γGlu-Lauroyl])FIK([AEEA-AEEA-γGlu-Lauroyl])FVVEGG-NH2), the EC50 was determined as 19.7 nM in experiment [1] (first replicate, read-out: Primary assay EC50 GIP-R (n1)); 43.7 pM in experiment [2] (setting [6]); 22.1 pM in experiment [2] (setting [7]); 65.2 pM in experiment [2] (setting [8]); 5550 pM in experiment [3] (setting [9]); 4100 pM in experiment [3] (setting [10]). Further, the EC50 in experiment [3] (setting [11]) is 6990 pM; in experiment [4] (setting [12]) it was 19.7 nM.

On to `CCCCCCCCCCCC(=O)N[C@@H](CCC(=O)NCCOCCOCC(=O)NCCOCCOCC(=O)NCCCC[C@H](NC(=O)[C@H](C)NC(=O)[C@@H](NC(=O)[C@H](Cc1ccccc1)NC(=O)[C@H](CCC(=O)O)NC(=O)[C@](C)(CCCCN)NC(=O)[C@H](C)NC(=O)[C@H](C)NC(=O)[C@H](CCC(=O)O)NC(=O)[C@H](CCCCNC(=O)COCCOCCNC(=O)COCCOCCNC(=O)CC[C@H](NC(=O)CCCCCCCCCCC)C(=O)O)NC(=O)[C@H](CCC(=O)O)NC(=O)[C@H](CC(C)C)NC(=O)[C@H](Cc1ccc(O)cc1)NC(=O)[C@H](CO)NC(=O)[C@H](CO)NC(=O)[C@H](CCCCNC(=O)COCCOCCNC(=O)COCCOCCNC(=O)CC[C@H](NC(=O)CCCCCCCCCCC)C(=O)O)NC(=O)[C@H](CC(=O)O)NC(=O)[C@H](CO)NC(=O)[C@@H](NC(=O)[C@](C)(Cc1ccccc1)NC(=O)[C@H](CO)NC(=O)CNC(=O)[C@H](CCC(=O)O)NC(=O)C(C)(C)NC(=O)[C@@H](N)Cc1c[nH]cn1)[C@@H](C)O)[C@@H](C)CC)C(=O)N[C@H](C(=O)N[C@H](C(=O)N[C@@H](CCC(=O)O)C(=O)NCC(=O)NCC(N)=O)C(C)C)C(C)C)C(=O)O` [compound 455] (H-H[Aib]EGS[αMeF]TSDK([AEEA-AEEA-γGlu-Lauroyl])SSYLEK([AEEA-AEEA-γGlu-Lauroyl])EAA[αMeK]EFIAK([AEEA-AEEA-γGlu-Lauroyl])VVEGG-NH2), for which the EC50 in experiment [1] (setting [5]) amounted to 19.8 nM; in experiment [2] (setting [6]), 87.4 pM; in experiment [2] (setting [7]), 54.8 pM; in experiment [2] (setting [8]), 120 pM; in experiment [3] (setting [9]), 4910 pM; in experiment [3] (setting [10]), 6740 pM. The figures for the EC50 in experiment [3] (setting [11]) and in experiment [4] (setting [13]) were 3080 pM and 19.8 nM, respectively.

Take `CCCCCCCCCCCC(=O)N[C@@H](CCC(=O)NCCOCCOCC(=O)NCCOCCOCC(=O)NCCCC[C@H](NC(=O)[C@H](C)NC(=O)[C@@H](NC(=O)[C@H](Cc1ccccc1)NC(=O)[C@H](CCCCNC(=O)COCCOCCNC(=O)COCCOCCNC(=O)CC[C@H](NC(=O)CCCCCCCCCCC)C(=O)O)NC(=O)[C@](C)(CCCCN)NC(=O)[C@H](C)NC(=O)[C@H](C)NC(=O)[C@H](CCC(=O)O)NC(=O)CNC(=O)[C@H](CCC(=O)O)NC(=O)[C@H](CC(C)C)NC(=O)[C@H](Cc1ccc(O)cc1)NC(=O)[C@H](CO)NC(=O)[C@H](CO)NC(=O)[C@H](CCCCNC(=O)COCCOCCNC(=O)COCCOCCNC(=O)CC[C@H](NC(=O)CCCCCCCCCCC)C(=O)O)NC(=O)[C@H](CC(=O)O)NC(=O)[C@H](CO)NC(=O)[C@@H](NC(=O)[C@](C)(Cc1ccccc1)NC(=O)[C@H](CO)NC(=O)CNC(=O)[C@H](CCC(=O)O)NC(=O)C(C)(C)NC(=O)[C@@H](N)Cc1c[nH]cn1)[C@@H](C)O)[C@@H](C)CC)C(=O)N[C@H](C(=O)N[C@H](C(=O)N[C@@H](CCC(=O)O)C(=O)NCC(=O)NCC(N)=O)C(C)C)C(C)C)C(=O)O` [compound 458] (H-H[Aib]EGS[αMeF]TSDK([AEEA-AEEA-γGlu-Lauroyl])SSYLEGEAA[αMeK]K([AEEA-AEEA-γGlu-Lauroyl])FIAK([AEEA-AEEA-γGlu-Lauroyl])VVEGG-NH2; N-terminus assumed): the EC50 was found to be 20 nM in experiment [1] (setting [5]); 41.4 pM in experiment [2] (setting [6]); 36.3 pM in experiment [2] (setting [7]); 46.4 pM in experiment [2] (setting [8]); 3370 pM in experiment [3] (setting [9]); 3070 pM in experiment [3] (setting [10]). The EC50 came out at 3670 pM in experiment [3] (setting [11]) and 20 nM in experiment [4] (setting [13]).

These data come from patent publication US10414811B2, “Protease-resistant lipidated GLP-1 analogs” (MEDIMMUNE LIMITED, priority 2015, dated 2019).
